Assay results from ChEMBL document CHEMBL1201862, “PubChem BioAssay data set” (2004).
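Following 48 hours of exposure in 96-well plates, responses at five concentrations were used to interpolate endpoints linearly. Here, GI50 denotes the concentration required for 50% inhibition of growth.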 Calls of active or inactive are those of the source. No stated cut-off is given here; in the data, active = GI50 up to about 1.1 µM and inactive = higher.

What was measured:
Assay in all cases: growth of human tumour cells (NCI), 48 h
BT-549 = system: BT-549
Hs-578T = system: Hs-578T
DLD-1 = system: DLD-1
KM-20L2 = system: KM-20L2
LXFL 529 = system: LXFL 529
M19-MEL = system: M19-MEL
SNB-78 = system: SNB-78

SMILES	GI50 (BT-549)	GI50 (Hs-578T)	also measured
O=C1NC(=S)NC(=O)C1C(c1ccc(O)cc1)C1C(=O)NC(=S)NC1=O.c1ccncc1	> 100 µM (inactive)		
CN(Cc1ccccc1)C(=S)S [SODIUM BENZYL(METHYL)CARBAMODITHIOATE]	77.4 µM (inactive)	78.7 µM (inactive)	
COc1cnc2cc(C(=O)O)c3ccccc3c2c1		> 100 µM (inactive)	
C[C@@H]1CC[C@@H]2[C@@H](C1)O[C@@H]([C@H](C)OCc1ccccc1)SC2(C)C	39.4 µM (inactive)		
Cc1ccc2ccccc2c1CC1S(=O)(=O)OCCOS1(=O)=O	11.2 µM (inactive)		
COc1ccc(NC(=O)C(=O)Cc2nc3ccc(C(=O)c4ccccc4)cc3nc2O)c([N+](=O)[O-])c1	26.9 µM (inactive)	> 100 µM (inactive)	
CS(=O)(=O)N1CC(CCl)c2ccc(NO)cc21 (stereo not given)	12 µM (inactive)	23.1 µM (inactive)	
CC(=O)O[C@H]1CC(C)(C)C(=C=C/C(C)=C/C=C/C=C/C=C(C)/C=C2C=C(/C=C/[C@@]34O[C@]3(C)C[C@@H](O)CC4(C)C)C(=O)O/2)[C@](C)(O)C1	2.51 µM (inactive)		
Sc1ccc2ccccc2c1CNCc1ccccc1	15.8 µM (inactive)	22.7 µM (inactive)	
COc1ccc(NC(=S)N/N=C(\c2ccccc2)c2ccccn2)cc1	4.94 µM (inactive)	10.3 µM (inactive)	
O=C([C@H](O)[C@@H](O)c1cccc(Cl)c1)C12CC3CC(CC(C3)C1)C2	1.87 µM (inactive)	2.61 µM (inactive)	
CC(C)(CCc1nc2ccccc2[nH]1)C(=O)O	> 100 µM (inactive)	> 100 µM (inactive)	
O=C1NC(NNc2ccccc2)=N/C1=C\c1ccco1	21.2 µM (inactive)	26.2 µM (inactive)	
Cc1ccc(NC(=O)C(=O)C(C#N)c2nc(-c3ccc(-c4ccccc4)cc3)cs2)c(C)c1 (stereo not given)			GI50 (DLD-1): > 100 µM (inactive); GI50 (KM-20L2): > 100 µM (inactive); GI50 (LXFL 529): > 100 µM (inactive); GI50 (M19-MEL): > 100 µM (inactive); GI50 (SNB-78): > 100 µM (inactive)
C=C(c1ccccc1)c1ccccc1-c1cc(-c2ccccc2)cc(-c2ccccc2)n1		> 100 µM (inactive)	
Cc1nnc(N)nc1C/C=C/C(C)Sc1ccc(Cl)cc1 (stereo not given)	5.22 µM (inactive)	7.14 µM (inactive)	
O=C(NCCc1ccccc1)c1cc(/C=C/c2cc(O)ccc2O)ccc1O	1.78 µM (inactive)	5.2 µM (inactive)	
CCOC(=O)C1C(c2ccc3c(c2)OCO3)c2c(n[nH]c2O)CC1(C)O (stereo not given)		> 100 µM (inactive)	
O=C1c2ccccc2-c2c1c1ccccc1c(=O)n2Cc1ccccc1	62.7 µM (inactive)	43.5 µM (inactive)	
CCOc1ccc2nc(NC(=O)C(=O)C(c3cnc4ccccc4n3)[N+](=O)[O-])sc2c1 (stereo not given)	> 100 µM (inactive)	> 100 µM (inactive)	
C=C1CN=C(Nc2ccc(F)cc2F)S1		> 100 µM (inactive)	
COc1cc(/C=C2\CCc3cc(OC)c(OC)cc3C2=O)cc(OC)c1	10.4 µM (inactive)	23.9 µM (inactive)	
COC(=O)c1cc(O)c(O)c(O)c1-c1c(O)c(O)c(O)c(SC[C@H](NC(=O)OCc2ccccc2)C(=O)OCc2ccccc2)c1C(=O)OC	34.7 µM (inactive)	29.6 µM (inactive)	
CC1=CC(=O)CC(C)(C)C1/C=C/C(C)=C/C=C/C(C)=C/C=C/C=C(C)/C=C/C=C(C)/C=C/C1C(C)=CC(=O)CC1(C)C (stereo not given)		30.8 µM (inactive)	
Cn1c(=O)c2nc(CSCc3ccccc3)[nH]c2n(C)c1=O	> 100 µM (inactive)	> 100 µM (inactive)	
CC1(C)N=C2C(=O)c3c([nH]c4ccccc34)[C@]3(C)CCC1CC23 (stereo not given in full)	> 6.25 µM (inactive)	> 6.25 µM (inactive)	
C/C=C/C/C=C/CCC(=O)C1OC1C(N)=O (stereo not given)	12.2 µM (inactive)	22.8 µM (inactive)	
COCN(C)c1nc(N(C)C)nc(N(C)C)n1			GI50 (DLD-1): > 100 µM (inactive); GI50 (KM-20L2): > 100 µM (inactive); GI50 (LXFL 529): 81.5 µM (inactive); GI50 (M19-MEL): > 100 µM (inactive); GI50 (SNB-78): > 100 µM (inactive)

SMILES	GI50 (BT-549)	GI50 (Hs-578T)	also measured
O=c1[nH]n(Cc2ccccc2CCl)c2ccc([N+](=O)[O-])cc12		85.5 µM (inactive)	
S=C(N/N=C(/c1ccccc1)c1ccccn1)Nc1ccc(Cl)cc1	3.15 µM (inactive)	0.873 µM (active)	
COc1ccc2c(c1)CC[C@@H]1C2CC[C@]2(C)C(=O)N(C)C(=O)CC12 (stereo not given in full)	> 100 µM (inactive)	42 µM (inactive)	
CC(C)c1ccc(/C=C2\CSCC3=C2N=C(S)NC3c2ccc(C(C)C)cc2)cc1 (stereo not given)	> 100 µM (inactive)		
Cn1c2ccccc2c2c3c(=O)[nH][nH]c(=O)c3c3c4ccccc4n(C)c3c21	> 100 µM (inactive)	> 100 µM (inactive)	
COC(=O)[C@@](NC(=O)OCc1ccccc1)([C@H](C)O)C(F)(F)F	> 100 µM (inactive)	> 100 µM (inactive)	
C[C@]12CC[C@H](O)CC1=CC[C@@H]1C2CC[C@]2(C)c3n[nH]nc3CC12 (stereo not given in full)	> 100 µM (inactive)	38.6 µM (inactive)	
O=c1c(Cl)cc2nc3ccccc3sc-2c1Cl	11.7 µM (inactive)	22 µM (inactive)	
COc1ccc(/C(=N/N=c2\[nH]c3ccccc3n2Cc2ccccc2)C(=O)O)cc1	25.1 µM (inactive)	31.7 µM (inactive)	
C/C(=N/NC(=S)Nc1cccc(C)c1)c1ccccn1	3.87 µM (inactive)	3.82 µM (inactive)	
Cc1cnc2c(c1)C(=O)C1=C(C2=O)C2OC(=O)CC2OC1(C)C (stereo not given)	0.185 µM (active)	0.301 µM (active)	
CCOC(=O)N[C@@H]1C2CC(=O)C(O2)[C@@H]1OC (stereo not given in full)			GI50 (DLD-1): > 100 µM (inactive); GI50 (KM-20L2): > 100 µM (inactive); GI50 (M19-MEL): > 100 µM (inactive); GI50 (SNB-78): > 100 µM (inactive)
COC(=O)c1c([N+](=O)[O-])ncn1[C@H]1OC[C@@H](OC(C)=O)[C@@H](OC(C)=O)[C@@H]1OC(C)=O	> 100 µM (inactive)		
COc1cccc(/N=C/c2cc(OC)c(OC)c(OC)c2)c1	72.6 µM (inactive)	> 100 µM (inactive)	
C/C(CC(O)(/C=N/O)c1ccccc1)=N/O (stereo not given)	> 100 µM (inactive)	> 100 µM (inactive)	
C=CCC12CC(=O)CCC1c1ccc(OC)cc1C2=O (stereo not given)			GI50 (DLD-1): > 100 µM (inactive); GI50 (KM-20L2): > 100 µM (inactive); GI50 (LXFL 529): > 100 µM (inactive); GI50 (M19-MEL): > 100 µM (inactive); GI50 (SNB-78): > 100 µM (inactive)
Cc1cc2nc3[nH]c4c(Cl)cc(Cl)cc4c3nc2cc1C	98.4 µM (inactive)	> 100 µM (inactive)	
O=C1NC(=O)C23C(=O)NC(=O)C12C1C=CC3CC1 (stereo not given)		> 10 µM (inactive)	
CC1(C)COC(c2cccc(C(O)c3ccc(Cl)cc3)c2)=N1 (stereo not given)		23.4 µM (inactive)	
CC(C)=CC1C(COC(=O)c2ccccc2Cl)C1(C)C (stereo not given)	33.5 µM (inactive)	19 µM (inactive)	
C=C(C)C1(Sc2ccc(OC)cc2)CC1	17.1 µM (inactive)		
CC1(C)OCC(C2OC(=O)C(OCc3ccccc3)=C2OCc2ccccc2)O1 (stereo not given)	35 µM (inactive)	70.6 µM (inactive)	
O=C(CSc1nnc(SCC(=O)NN=C2CCCCC2)s1)NN=C1CCCCC1	> 100 µM (inactive)		
CC1=C(C(=O)NNC(=O)c2ccccc2O)CC(C(=O)NNC(=O)c2ccccc2O)=C(C)N1	0.446 µM (active)	0.197 µM (active)	
COc1ccc(C2(O)c3ccccc3C(=O)N(C)C2(O)c2ccc(OC)cc2)cc1 (stereo not given)	34.3 µM (inactive)	0.396 µM (active)	
Nc1ccccc1OCCCOc1ccccc1N	> 100 µM (inactive)	> 100 µM (inactive)	
CC(=O)O[C@H]1C(=O)[C@@]2(C)[C@H]([C@H](OC(=O)c3ccccc3)[C@]3(O)C[C@H](OC(=O)[C@H](O)[C@@H](NC(=O)c4ccccc4)c4cccc(N(C)C)c4)C(C)=C1C3(C)C)[C@]1(OC(C)=O)CO[C@@H]1C[C@@H]2O	0.165 µM (active)	0.0276 µM (active)	
